Measured values: patent US9073820B2, “Pharmaceutical compositions comprising napthamides” (OREGON HEALTH & SCIENCE UNIVERSITY, priority 2011, dated 2015)
Read-outs that look alike come from different tables or passages of the source.

Legend:
[1] = test system: MDA-MB-231 (human breast cancer cells); test: MTT cell growth inhibition, 72 h, MDA-MB-231; type: cell-based; settings: MDA-MB-231, 72 h, read-out: MDA-MB-231 (GI50)
Protocol: (§1) A549 (human lung cancer cells), MCF-7 (human breast cancer cells), MDA-MB-231 (human breast cancer cells) and MDA-MB-468 cells (human breast cancer cells) were maintained in Dulbecco's modified Eagle medium (DMEM, Invitrogen, Carlsbad, Calif.) supplemented with 10% (v/v) fetal calf serum (Sigma, St. Louis, Mo.), 10 μg/mL penicillin and 10 μg/mL streptomycin (Invitrogen, Carlsbad, Calif.) at 37° C. under 5% CO2. On the day of experiment, different concentrations of the drugs (final concentration 10^−8-10^−4 M) in duplicates were added to the cells and the cells were further incubated for 72 h. Then, the number of live cells was quantified by 3-(4,5-dimethyl-2-thiazolyl)-2,5-diphenyl-2H-tetrazolium bromide (MTT reagent, Sigma, St. Louis, Mo.).
(§2) The amount of reduced MTT formazan generated by live cells was determined by its absorbance at 570 nm after subtracting the background absorbance at 690 nm. The percent of cell growth was expressed as (A570(treated)−A570(initial))/(A570(vehicle treated)−A570(initial))*100, where A570(initial) represents initial cell population when drugs are added. The GI50 were derived from non-linear regression analysis of the dose-response curve using Prism 4.0 (GraphPad). […] Data were presented as mean±SD of at least two measurements in duplicates unless noted.

[2] = test system: MDA-MB-468 cells (human breast cancer cells); test: MTT cell growth inhibition, 72 h, MDA-MB-468; type: cell-based; settings: MDA-MB-468, 72 h, read-out: MDA-MB-468 (GI50)
Protocol: as §1, §2

[3] = test system: CREB-mediated gene transcription; test: CREB reporter (pCRE-RLuc) assay in HEK 293T cells, forskolin-stimulated; type: cell-based; settings: Homo sapiens, 5 h, read-out: CREB reporter inhibition (IC50)
Protocol: HEK293T cells in a 10-cm plate were transfected with pCRE-RLuc (6.0 μg) using Lipofectamine™ 2000 (Invitrogen, Carlsbad, Calif.) according to manufacturer's protocol. After 3 h, the transfected cells were collected and replated into 96-well plates (1-2×10^4 cells/well). The cells were allowed to attach to the bottom of the wells for overnight, when compounds of different concentrations were added to the cells. Forskolin (final concentration of 10 μM, LC Laboratories, Woburn, Mass.) was added 30 min after the addition of the compounds. The cells were then incubated at 37° C. for 5 h. The media in the wells were removed and the cells were then lysed in 30 μL of 1×Renilla luciferase lysis buffer (Promega, Madison, Wis.). To measure Renilla luciferase activity, five μL of the lysate was combined with 30 μL of benzyl-coelenterazine (Nanolight, Pinetop, Ariz.) solution in PBS (pH 7.4, 10 μg/mL). The sample protein concentration was determined by Dye Reagent Concentrate (Bio-Rad, Hercules, Calif.). The Renilla luciferase activity was normalized to protein content in each well and expressed as relative luciferase unit/μg protein (RLU/μg protein). The IC50 was derived from non-linear regression analysis of the RLU/μg protein-concentration curve in Prism 5.0 (La Jolla, Calif.).

[4] = test system: A549 (human lung cancer cells); test: MTT cell growth inhibition, 72 h, A549; type: cell-based; settings: A549, 72 h, read-out: A549 (GI50)
Protocol: as §1, §2

[5] = test system: MCF-7 (human breast cancer cells); test: MTT cell growth inhibition, 72 h, MCF-7; type: cell-based; settings: MCF7, 72 h, read-out: MCF-7 (GI50)
Protocol: as §1, §2

KIX-KID = biological target: T1, KIX-KID (Homo sapiens, UniProt Q92793); test: KIX-KID inhibition, split Renilla luciferase complementation (RLucC-KIX and KID-RLucN); type: binding; settings: 4° C., 24 h
T1 construct: made in house
Protocol: RLucC-KIX (15 ng) and KID-RLucN-containing cell lysates (0.5 mg) were mixed together in Renilla luciferase lysis buffer (Promega, Madison, Wis.) in the presence of different concentrations of compounds. The final volume of the incubation mixture is 30 μL. The mixture was incubated at 4° C. for 24 h. Then Renilla luciferase activity was measured by combining 5 μL of incubation mixture with 30 μL of coelenterazine solution in PBS (pH 7.4, 10 μg/mL).

T1 sequence (Q92793 587-666 limits assumed): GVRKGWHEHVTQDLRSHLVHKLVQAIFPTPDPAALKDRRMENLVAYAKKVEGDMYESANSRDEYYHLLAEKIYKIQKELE

IC50 ([3]; HEK 293T, forskolin 10 μM) | IC50 (KIX-KID) | Structure (SMILES) | GI50 [1] | GI50 [2] | IC50 ([3]; HEK-293T) | also measured
 |  | NCCCOc1cc2ccccc2cc1C(=O)NCCOc1nc2ccccc2cc1C(=O)Nc1ccc(Cl)cc1O [Compound 6] | 190 ± 120 nM | 13 ± 2 nM | 72 ± 9 nM | 
1950 ± 1140 nM | 170 ± 120 nM | COc1cc2ccccc2cc1C(=O)Nc1ccccc1OC(=O)c1cc2ccccc2cc1OC [Compound 2, reference compound] |  |  |  | GI50 ([4]; MTT, mean±SD): 8780 ± 2550 nM; GI50 ([5]; MTT, mean±SD): 3380 ± 490 nM; GI50 ([1]; MTT, mean±SD): 23500 ± 2270 nM; GI50 ([2]; MTT, mean±SD): 8130 ± 5470 nM
2270 ± 280 nM | 8020 ± 360 nM | NCCCOc1cc2ccccc2cc1C(=O)Nc1ccc(Cl)cc1OC(=O)c1cc2ccccc2cc1OCCCN [Compound 3, reference compound] |  |  |  | 
 |  | NCCCOc1nc2ccccc2cc1C(=O)NCCOc1nc2ccccc2cc1C(=O)Nc1ccc(Cl)cc1F [Compound 9] | 370 ± 250 nM |  | 440 ± 340 nM | 
 |  | NCCCOc1nc2ccccc2cc1C(=O)NCCOc1nc2ccccc2cc1C(=O)Nc1ccc(Cl)cc1O [Compound 8] | 540 ± 130 nM | 290 ± 55 nM | 4030 ± 200 nM | 
 |  | NCCCOc1nc2ccccc2cc1C(=O)NCCOc1cc2ccccc2cc1C(=O)Nc1ccc(Cl)cc1O [Compound 7] | 840 ± 180 nM | 140 ± 24 nM | 170 ± 66 nM | GI50 [4]: 640 nM; GI50 [5]: 190 nM
2290 ± 310 nM | 2900 ± 810 nM | O=C(Nc1ccc(Cl)cc1)c1cc2ccccc2cc1O [Compound 1, reference compound] |  |  |  | GI50 ([1]; MTT, mean±SD): 2350 ± 600 nM; GI50 ([2]; MTT, mean±SD): 1460 ± 300 nM
